Measured values: US5710130A, “Antithrombotic agents” (Eli Lilly and Company, priority 1995, dated 1998)
Counter-ions that a name gives are not always drawn.

Columns and labels:
Format in all cases: biochemical
human plasma [1] = assay: Human plasma anticoagulation, prothrombin time (PT); details: concentration required to double PT, linear extrapolation
Procedure: (§1) Dog plasma and rat plasma is obtained from conscious mixed-breed hounds (either sex, Hazelton-LRE, Kalamazoo, Mich., U.S.A.) or from anesthetized male Sprague-Dawley rats (Harlan Sprague-Dawley, Inc., Indianapolis, Ind., U.S.A.) by venipuncture into 3.8 percent citrate. Fibrinogen is prepared from in-date ACD human blood as the fraction I-2 according to previous procedures and specifications. […] Human fibrinogen is also purchased as 98 percent pure/plasmin free from American Diagnostica, Greenwich, Conn. Coagulation reagents ACTIN, Thromboplastin, and Human plasma are from Baxter Healthcare Corp., Dade Division, Miami, Fla. Bovine thrombin from Parke-Davis ([…], Mich.) is used for coagulation assays in plasma.
(§2) Coagulation assay procedures are as previously described. […] A CoAScreener coagulation instrument (American LABor, Inc.) is used for all coagulation assay measurements. The prothrombin time (PT) is measured by adding 0.05 mL saline and 0.05 mL Thromboplastin-C reagent to 0.05 mL test plasma. The activated partial thromboplastin time (APTT) is measured by incubation of 0.05 mL test plasma with 0.05 mL Actin reagent for 120 seconds followed by 0.05 mL CaCl2 (0.02M). The thrombin time (TT) is measured by adding 0.05 mL saline and 0.05 mL thrombin (10 NIH units/mL) to 0.05 mL test plasma. The compounds of Formula I are added to human or animal plasma over a wide range of concentrations to determine prolongation effects on the APTT, PT, and TT assays. Linear extrapolations are performed to estimate the concentrations required to double the clotting time for each assay.

human plasma [2] = assay: Human plasma anticoagulation, thrombin time (TT); details: concentration required to double thrombin time, linear extrapolation
Procedure: as §1, §2

human plasma [3] = assay: Human plasma anticoagulation, activated partial thromboplastin time (APTT); details: concentration required to double APTT, linear extrapolation
Procedure: as §1, §2

N=C(N)c1ccc(CNC(=O)[C@@H]2C[C@@H]3CCCC[C@@H]3N2C(=O)[C@H]2CCCCN2)cc1 (relative stereo) [Example 20, (S-cis)-N-[[4-(aminoiminomethyl)phenyl]methyl]-octahydro-1-D-homoprolyl-1H-indole-2-carboxamide trihydrochloride]
Human Plasma Anticoagulation 2x Clotting time PT (human plasma [1]): 600 ng/mL

N=C(N)c1ccc(CNC(=O)[C@@H]2C[C@@H]3CCCC[C@@H]3N2C(=O)[C@H]2C[C@H]3CCCC[C@H]3CN2)cc1 (relative stereo) [Example 43, D-3-Piq-cis-Ohi-p-NHCH2 C6 H4 C(NH)NH2.2HCl]
Human Plasma Anticoagulation 2x Clotting time TT (human plasma [2]): 280 ng/mL
Human Plasma Anticoagulation 2x Clotting time APTT (human plasma [3]): 1,100 ng/mL
Human Plasma Anticoagulation 2x Clotting time PT (human plasma [1]): 930 ng/mL

CCS(=O)(=O)N[C@H](Cc1ccccc1)C(=O)N1CCC[C@H]1C(=O)NCCCCN=C(N)N.Cl [Example 1, EtSO2 -D-Phe-Pro-Agm.Hcl]
Human Plasma Anticoagulation 2x Clotting time TT (human plasma [2]): 250 ng/mL

N=C(N)NCCCCCCNC(=O)[C@@H]1CCCN1C(=O)[C@H](N)Cc1ccccc1 [Example 5, D-Phe-Pro-NH(CH2)6 NHC(NH)NH2.HCl]
Human Plasma Anticoagulation 2x Clotting time TT (human plasma [2]): 30,000 ng/mL

N=C(N)NCCCCCNC(=O)[C@@H]1CCCN1C(=O)[C@H](N)Cc1ccccc1 [Example 6, D-Phe-Pro-NH(CH2)5 NHC(NH)NH2.HCl]
Human Plasma Anticoagulation 2x Clotting time TT (human plasma [2]): 390 ng/mL

N=C(N)NCCCNC(=O)[C@@H]1CCCN1C(=O)[C@H](N)Cc1ccccc1 [Example 7, D-Phe-Pro-NH(CH2)3 NHC(NH)NH2.HCl]
Human Plasma Anticoagulation 2x Clotting time TT (human plasma [2]): 490 ng/mL

N=C(N)NCc1ccc(CNC(=O)[C@@H]2CCCN2C(=O)[C@H](N)Cc2ccccc2)cc1 [Example 9, D-Phe-Pro-p-NHCH2 C6 H4 CH2 NHC(NH)NH2.2TFA]
Human Plasma Anticoagulation 2x Clotting time TT (human plasma [2]): > 91,000 ng/mL

NCc1ccc(CNC(=O)[C@@H]2CCCN2C(=O)[C@H](N)Cc2ccccc2)cc1 [Example 10, D-Phe-Pro-p-NHCH2 C6 H4 CH2 NH2.HCl]
Human Plasma Anticoagulation 2x Clotting time TT (human plasma [2]): 420 ng/mL

Nc1ccc(CNC(=O)[C@@H]2CCCN2C(=O)[C@H](N)Cc2ccccc2)cc1 [Example 13, D-Phe-Pro-p-NHCH2 C6 H4 NH2.HCl]
Human Plasma Anticoagulation 2x Clotting time TT (human plasma [2]): 660 ng/mL

CCS(=O)(=O)N[C@H](Cc1ccccc1)C(=O)N1CCC[C@H]1C(=O)NCc1cccc(C(=N)N)c1 [Example 24, EtSO2 -D-Phe-Pro-m-NHCH2 -C6 H4 C(=NH)NH2.HCl]
Human Plasma Anticoagulation 2x Clotting time TT (human plasma [2]): 1,000 ng/mL
Human Plasma Anticoagulation 2x Clotting time PT (human plasma [1]): 25,000 ng/mL

CCS(=O)(=O)N[C@H](Cc1ccccc1)C(=O)N1CCC[C@H]1C(=O)NCCCc1ccc(C(=N)N)cc1 [Example 30, EtSO2 -D-Phe-Pro-p-NHCH2 CH2 CH2 -C6 H4 C(=NH)NH2.HCl]
Human Plasma Anticoagulation 2x Clotting time TT (human plasma [2]): 1,000 ng/mL
Human Plasma Anticoagulation 2x Clotting time APTT (human plasma [3]): 14,000 ng/mL

CCS(=O)(=O)N[C@H](Cc1ccccc1)C(=O)N1CCC[C@H]1C(=O)NCCCc1cccc(C(=N)N)c1 [Example 31, EtSO2 -D-Phe-Pro-m-NHCH2 CH2 CH2 -C6 H4 C(=NH)NH2.HCl]
Human Plasma Anticoagulation 2x Clotting time PT (human plasma [1]): 30,000 ng/mL

CCS(=O)(=O)N[C@H](Cc1ccccc1)C(=O)N1CCC[C@H]1C(=O)NCc1ccc(NC(=N)N)cc1 [Example 34, EtSO2 -D-Phe-Pro-p-NHCH2 C6 H4 NHC(NH)NH2.HCl]
Human Plasma Anticoagulation 2x Clotting time TT (human plasma [2]): 530 ng/mL
Human Plasma Anticoagulation 2x Clotting time APTT (human plasma [3]): 4,900 ng/mL
Human Plasma Anticoagulation 2x Clotting time PT (human plasma [1]): 5,500 ng/mL

CCS(=O)(=O)N[C@H](Cc1ccccc1)C(=O)N1CCC[C@H]1C(=O)NCCc1ccc(NC(=N)N)cc1 [Example 35, EtSO2 -D-Phe-Pro-p-NHCH2 CH2 C6 H4 NHC(NH)NH2.HCl]
Human Plasma Anticoagulation 2x Clotting time TT (human plasma [2]): 4,500 ng/mL
Human Plasma Anticoagulation 2x Clotting time APTT (human plasma [3]): 50,400 ng/mL
Human Plasma Anticoagulation 2x Clotting time PT (human plasma [1]): 78,400 ng/mL

CCS(=O)(=O)N[C@H](Cc1ccccc1)C(=O)N1CCC[C@H]1C(=O)NCc1cccc(NC(=N)N)c1 [Example 36, EtSO2 -D-Phe-Pro-m-NHCH2 C6 H4 NHC(NH)NH2.HCl]
Human Plasma Anticoagulation 2x Clotting time TT (human plasma [2]): 7,700 ng/mL
Human Plasma Anticoagulation 2x Clotting time APTT (human plasma [3]): > 91,000 ng/mL
Human Plasma Anticoagulation 2x Clotting time PT (human plasma [1]): > 91,000 ng/mL

N=C(N)Nc1ccc(CNC(=O)[C@@H]2CCCN2C(=O)[C@@H]2NCC[C@@H]3CCCC[C@@H]32)cc1 [Example 38, D-1-piq-pro-p-NHCH2 C6 H4 NHC(NH)NH2.2HCl]
Human Plasma Anticoagulation 2x Clotting time TT (human plasma [2]): 540 ng/mL
Human Plasma Anticoagulation 2x Clotting time APTT (human plasma [3]): 6,100 ng/mL

N=C(N)Nc1ccc(CCNC(=O)[C@@H]2CCCN2C(=O)[C@@H]2NCC[C@@H]3CCCC[C@@H]32)cc1 [Example 39, D-1-piq-Pro-p-NHCH2 CH2 C6 H4 NHC(NH)NH2.2HCl]
Human Plasma Anticoagulation 2x Clotting time TT (human plasma [2]): 5,300 ng/mL

N=C(N)Nc1cccc(CNC(=O)[C@@H]2CCCN2C(=O)[C@@H]2NCC[C@@H]3CCCC[C@@H]32)c1 [Example 40, D-1-Piq-Pro-m-NHCH2 C6 H4 NHC(NH)NH2.2HCl]
Human Plasma Anticoagulation 2x Clotting time APTT (human plasma [3]): > 91,000 ng/mL
Human Plasma Anticoagulation 2x Clotting time PT (human plasma [1]): > 91,000 ng/mL

N=C(N)Nc1cccc(CCNC(=O)[C@@H]2CCCN2C(=O)[C@@H]2NCC[C@@H]3CCCC[C@@H]32)c1 [Example 41, D-1-Piq-Pro-m-NHCH2 CH2 C6 H4 NHC(NH)NH2.2HCl]
Human Plasma Anticoagulation 2x Clotting time APTT (human plasma [3]): > 91,000 ng/mL
Human Plasma Anticoagulation 2x Clotting time PT (human plasma [1]): > 91,000 ng/mL

N=C(N)c1ccc(CNC(=O)[C@@H]2CCCN2C(=O)[C@@H](CC2CCCCC2)NCC(=O)O)cc1 [Example 48, N-(carboxymethyl)-D-cyclohexylalanyl-N-[[4-(aminoiminomethyl)phenyl]methyl]-L-prolinamide]
Human Plasma Anticoagulation 2x Clotting time TT (human plasma [2]): 2 ng/mL
Human Plasma Anticoagulation 2x Clotting time APTT (human plasma [3]): 33 ng/mL
Human Plasma Anticoagulation 2x Clotting time PT (human plasma [1]): 59 ng/mL

N=C(N)c1ccc(CNC(=O)[C@@H]2CCCN2C(=O)[C@H](N)CC2CCCCC2)cc1 [Example 51, D-cyclohexylalanyl-N-[[4-(aminoiminomethyl)phenyl]methyl]-L-prolinamide di-hydrochloride]
Human Plasma Anticoagulation 2x Clotting time TT (human plasma [2]): 2 ng/mL
Human Plasma Anticoagulation 2x Clotting time APTT (human plasma [3]): 48 ng/mL
Human Plasma Anticoagulation 2x Clotting time PT (human plasma [1]): 110 ng/mL

N=C(N)c1ccc(CNC(=O)[C@@H]2CCCN2C(=O)[C@@H](CC2CCCCC2)NCCC(=O)O)cc1 [Example 52, N-(2-carboxyethyl)-D-cyclohexylalanyl-N-[[4-(aminoiminomethyl)phenyl]methyl]-L-prolinamide hydrochloride]
Human Plasma Anticoagulation 2x Clotting time TT (human plasma [2]): 6 ng/mL
Human Plasma Anticoagulation 2x Clotting time APTT (human plasma [3]): 80 ng/mL
Human Plasma Anticoagulation 2x Clotting time PT (human plasma [1]): 170 ng/mL

O=C(O)CN[C@H](CC1CCCCC1)C(=O)N1CCC[C@H]1C(=O)NCC1CCNCC1 [Example 53, HO2 CCH2 -D-Cha-Pro-4-NHCH2 -piperidine.HCl]
Human Plasma Anticoagulation 2x Clotting time TT (human plasma [2]): 1,400 ng/mL

O=C(O)CN[C@H](CC1CCCCC1)C(=O)N1CCC[C@H]1C(=O)NCCCC1CCNCC1 [Example 55, HO2 CCH2 -D-Cha-Pro-4-NHCH2 CH2 CH2 -piperidine.HCl]
Human Plasma Anticoagulation 2x Clotting time APTT (human plasma [3]): > 91,000 ng/mL
Human Plasma Anticoagulation 2x Clotting time PT (human plasma [1]): > 91,000 ng/mL

N=C(N)NCCCCNC(=O)[C@@H]1CCCN1C(=O)[C@@H]1NCC[C@H]2CCCC[C@H]21 [Example 61, N-[4-[(aminoiminomethyl)amino]butyl]-1-[[(4aR,8aR)-decahydro-1(R)-isoquinolinyl]carbonyl]-1-prolinamide trihydrochloride]
Human Plasma Anticoagulation 2x Clotting time TT (human plasma [2]): 45 ng/mL

Nc1ccc(CNC(=O)[C@@H]2CCCN2C(=O)[C@@H](CC2CCCCC2)NCC(=O)O)cc1 [Example 62, HO2 CCH2 -D-Cha-Pro-4-NHCH2 C6 H4 NH2.HCl]
Human Plasma Anticoagulation 2x Clotting time TT (human plasma [2]): 54 ng/mL

Nc1ccc(CCNC(=O)[C@@H]2CCCN2C(=O)[C@@H](CC2CCCCC2)NCC(=O)O)cc1 [Example 63, HO2 CCH2 -D-Cha-Pro-4-NHCH2 CH2 C6 H4 NH2.HCl]
Human Plasma Anticoagulation 2x Clotting time TT (human plasma [2]): 680 ng/mL

N=C(N)c1ccc(CNC(=O)[C@@H]2CCCN2C(=O)[C@@H](CC2CCCCC2)NCC(=O)O)s1 [Example 65, N-(carboxymethyl)-D-cyclohexylalanyl-N-[[5-(aminoiminomethyl)thiophen-2-yl]methyl]-L-prolinamide hydrochloride]
Human Plasma Anticoagulation 2x Clotting time TT (human plasma [2]): 1 ng/mL
Human Plasma Anticoagulation 2x Clotting time APTT (human plasma [3]): 48 ng/mL

N=C(N)c1ccc(CNC(=O)[C@@H]2CCCN2C(=O)[C@@H](CC2CCCCC2)NCCCC(=O)O)cc1 [Example 85, N-(3-carboxypropyl)-D-cyclohexylalanyl-N-[[4-(aminoiminomethyl)phenyl]methyl]-L-prolinamide hydrochloride]
Human Plasma Anticoagulation 2x Clotting time TT (human plasma [2]): 4.9 ng/mL
Human Plasma Anticoagulation 2x Clotting time APTT (human plasma [3]): 100 ng/mL

CCC(CC)C(=O)N[C@@H](CCC(=O)O)C(=O)N1CCC[C@H]1C(=O)NCc1ccc(C(=N)N)cc1 [Example 90, (C2 H5)2 CHCO-Glu-Pro-p-NHCH2 C6 H4 C(NH)NH2.HCl]
Human Plasma Anticoagulation 2x Clotting time TT (human plasma [2]): 330 ng/mL
